# Assay results reported in paper PMC9913705, “Novel Non-Cyclooxygenase Inhibitory Derivative of Sulindac Inhibits Breast Cancer Cell Growth In Vitro and Reduces Mammary Tumorigenesis in Rats” (Cancers, 2023).
# Like-named read-outs stand apart in the source and are kept apart here.
# Assays:
# [1] = tested on: human breast cancer cell lines; details: same cell lines and treatment conditions; read-out: IC50 for human breast cancer cell growth (range over cell lines); cited from earlier work
# purified ovine COX-1 = biological target: T1, purified ovine COX-1 (Ovis aries, UniProt P05979); assay: COX-1 colorimetric activity assay (Cayman kit); type: biochemical
# T1 construct: purchased Cayman Chemical Company
# T1 sequence (P05979 25-600): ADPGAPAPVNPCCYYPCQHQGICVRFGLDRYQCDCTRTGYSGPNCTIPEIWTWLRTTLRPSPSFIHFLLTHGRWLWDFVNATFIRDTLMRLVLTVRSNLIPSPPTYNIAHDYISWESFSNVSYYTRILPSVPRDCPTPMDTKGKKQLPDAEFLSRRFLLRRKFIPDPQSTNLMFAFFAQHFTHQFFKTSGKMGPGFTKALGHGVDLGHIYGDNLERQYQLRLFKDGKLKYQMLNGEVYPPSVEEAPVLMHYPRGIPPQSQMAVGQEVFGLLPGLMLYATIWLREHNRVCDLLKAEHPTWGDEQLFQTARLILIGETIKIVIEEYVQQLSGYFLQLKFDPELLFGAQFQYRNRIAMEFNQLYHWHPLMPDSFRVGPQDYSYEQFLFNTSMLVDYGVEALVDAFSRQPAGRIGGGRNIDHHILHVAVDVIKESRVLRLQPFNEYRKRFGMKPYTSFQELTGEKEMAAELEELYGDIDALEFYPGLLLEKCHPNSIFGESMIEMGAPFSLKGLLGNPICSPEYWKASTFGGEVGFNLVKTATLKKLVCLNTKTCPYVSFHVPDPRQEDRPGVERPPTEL
# Description: (§1) COX-1 and COX-2 activities were measured using purified ovine COX-1 and COX-2 with colorimetric assay kits obtained from Cayman Chemical Company (Ann Arbor, MI, USA) according to the manufacturer’s protocol. After the addition of arachidonic acid and incubation at 25 °C for 5 min, COX activity was determined by measuring absorbance at 590 nm.
# [2] = Plasma levels after dietary feeding; type: in vivo, Sprague-Dawley rats; details: diet containing 1000, 2000, or 3000 ppm
# MDA-MB-231 cells = assay: Intracellular cGMP levels; type: cell-based, human; details: intact MDA-MB-231, 30 min, concentrations comparable with growth IC50
# Description: Intracellular levels of cGMP were measured in MDA-MB-231 cells after 30 min of drug treatment, as previously described.
# SKBr3 = assay: Growth inhibition, Cell Titer Glo; type: cell-based; details: Homo sapiens, SK-BR-3; SKBr3, 72 h, 2D
# Description: (§2) The human breast tumor cell lines Hs578t, MCF7, MDA-MB-231, SKBr3, and ZR75-1 were obtained from ATCC (Manassas, VA, USA) and grown in RPMI 1640 media containing L-glutamine, 5% fetal bovine serum, and penicillin/streptomycin at 37 °C in a humidified atmosphere with 5% CO2.
# (§3) Growth inhibition was measured using the Promega (Madison, WI, USA) Cell Titer Glo Assay following manufacturer’s specifications. First, 96-well tissue culture treated microtiter plates were seeded at a density of 5000 cells per well and incubated at 37 °C for 24 h prior to drug treatment. After treatment, plates were incubated 72 h prior to assay.
# MCF7 = assay: Growth inhibition, Cell Titer Glo; type: cell-based; details: Homo sapiens; MCF7, 72 h, 2D
# Description: as §2, §3
# MDA-MB-231 = assay: Growth inhibition, Cell Titer Glo; type: cell-based; details: Homo sapiens; MDA-MB-231, 72 h, 2D
# Description: as §2, §3
# ZR75-1 = assay: Growth inhibition, Cell Titer Glo; type: cell-based; details: Homo sapiens, ZR-75-1; ZR75-1, 72 h, 2D
# Description: as §2, §3
# Hs578t = assay: Growth inhibition, Cell Titer Glo; type: cell-based; details: Homo sapiens, Hs-578T, 72 h, 2D
# Description: as §2, §3
# Hs578t cells = assay: Tcf transcriptional activity, Super8XTOPFlash luciferase reporter; type: cell-based, human; details: 24 h
# Description: Tcf transcriptional activity was measured in Hs578t cells. Cells were seeded in 24-well tissue culture treated plates. After 24 h of incubation, cells were transiently transfected with 0.1 µg of Promega β-galactosidase-expressing vector and 0.1 µg of Super8XTOPFlash construct, which was kindly provided by Randall T. Moon from the University of Washington (Seattle, WA, USA). After 24 h of transfection, cells were treated with compound and incubated for an additional 24 h. Cells were lysed, and luciferase and β-galactosidase activities were measured using assay systems from Promega (Madison, WI, USA), following the manufacturer’s instructions. Luciferase activity was normalized to β-galactosidase activity.
# [3] = tested on: MDA-MB-231 breast tumor cells; assay: 3D HuBiogel mini-tumor growth, calcein-AM live imaging; type: cell-based, human; details: MDA-MB-231, calcein AM live imaging
# Description: Viable mini-tumors (1 mm in size) of MDA-MB-231 breast tumor cells were generated using the three-dimensional human Biogel culture system from Vivo Biosciences (Birmingham, AL, USA). Accordingly, 20,000 cells were mixed with HuBiogel beads and cultivated in rotary bioreactors for 3 days. Live cell imaging was performed using Calcein- acetoxymethyl (calcein-AM) staining.
# [4] = tested on: cGMP PDE in SKBr3 whole cell lysate; assay: cGMP hydrolysis in whole cell lysate, IMAP assay; type: biochemical, human; details: 100 µM
# Description: (§4) PDE activity was measured using the Molecular Devices (San Diego, CA, USA) IMAP fluorescence polarization assay as previously described. Recombinant PDE5 was purchased from BPS Biosciences (San Diego, CA, USA).
# [5] = tested on: cGMP PDE in MDA-MB-231 whole cell lysate; assay: cGMP hydrolysis in whole cell lysate, IMAP assay; type: biochemical, human; details: 100 µM
# Description: as §4
# [6] = tested on: MDA-MB-231 breast cancer cells; assay: Western blotting of phospho-VASP Ser239, cyclin D1, survivin; type: cell-based, human; details: 7.5 µM
# Description: All antibodies were obtained from Cell Signaling Technologies (Danvers, MA, USA). Cells were harvested and vortexed in ice cold lysis buffer containing 20 mM tris acetate, 5mM magnesium acetate, 1 mM ethylene glycol-bis(β-aminoethyl ether)-N,N,N′,N′-tetraacetic acid (EGTA), 0.8% Triton X-100, 50 mM sodium fluoride, 1.25 mM sodium vanadate, and protease inhibitor cocktail at pH 7.4. Lysates were centrifuged at 10,000× g for 10 min at 4 °C. Protein contents were determined using the Thermo/Pierce (Waltham, MA, USA) bicinchoninic acid (BCA) protein assay following the manufacturer’s specifications.
# Proteins (15 µg) from lysed cells were separated by sodium dodecyl sulfate polyacrylamide gel electrophoresis (SDS-PAGE) in a 12% polyacrylamide gel followed by electrophoretic transfer to a nitrocellulose membrane. The membranes were blocked with 5% nonfat dry milk in tris-buffered saline (TBS) containing 0.05% Tween-20. Membranes were incubated with primary antibody at 4 °C overnight followed by incubation with secondary antibody conjugated to horseradish peroxidase for 2 h at room temperature. Protein bands were visualized using Millipore Immobilon enhanced chemiluminescence (ECL) substrate on HyBlot CL autoradiography film.
# SKBr3 cells = assay: APO-BrdU TUNEL assay (DNA fragmentation), flow cytometry; type: cell-based, human; details: 24 h
# Description: A terminal deoxynucleotidyl transferase dUTP nick end labeling (TUNEL) assay was performed in SKBr3 cells using the Invitrogen APO-BrdU TUNEL Assay (Waltham, MA, USA) according to the manufacturer’s protocol, and fluorescence was measured using a Guava EasyCyte (Hayward, CA, USA) flow cytometry system. First, 10 cm tissue culture treated dishes were seeded at a density of 2,000,000 cells per dish and incubated at […] for 24 h prior to drug treatment. After treatment, cells were incubated for 24 h and then collected and fixed with 4% paraformaldehyde for 15 min on ice, washed with phosphate buffered saline (PBS), and incubated in 70% ethanol at −20 °C for 4–24 h prior to assay.
# MCF7 cells = assay: Caspase 3/7 Glo assay; type: cell-based, human; details: MCF7, 6 h treatment
# Description: (§5) Caspase activation was measured using Promega’s Caspase 3/7 Glo Assay following the manufacturer’s specifications. First, 96-well tissue culture treated microtiter plates were seeded at a density of 10,000 cells per well and incubated at 37 °C for 24 h prior to drug treatment. After treatment, plates were incubated 6 h prior to assay.
# [7] = tested on: Hs578t, MDA-MB-231, SKBr3, and ZR75-1 cells; assay: Caspase 3/7 Glo assay; type: cell-based, human; details: 6 h treatment; range over Hs578t, MDA-MB-231, SKBr3, ZR75-1
# Description: as §5
# [8] = tested on: MNU-induced mammary tumors; assay: MNU model of mammary carcinogenesis; type: in vivo; details: for reduction in tumor incidence compared to vehicle control / reduction in tumor multiplicity compared to vehicle control: 126 days after MNU
# Description: In vivo efficacy was evaluated using the N-methyl-N-nitrosourea (MNU) model of mammary carcinogenesis, as previously described. Briefly, female Sprague-Dawley rats were obtained from Envigo (formerly Harlan Sprague-Dawley, Inc.) (Indianapolis, IN, USA) at 28 days of age and placed on a Teklad 4% fat diet on the day of arrival. Within one week of arrival, rats were randomly assigned to groups (15 rats/group), ear marked for identification, and weighed to ensure statistically similar average body weights per group. At 50 days of age, rats received one IV injection of MNU (75 mg/kg) via the jugular vein. Rats were administered 800 or 1200 ppm of SSA or vehicle control in diet beginning 3 days after MNU administration. Rats were weighed once per week, palpated for mammary tumors twice per week, and checked daily for signs of toxicity. The study was terminated at 126 days after MNU administration. All mammary tumors were weighed when removed at necropsy, weighed, and processed for histological classification and analysis. The protocol used for this study was approved by the University of Alabama at Birmingham (UAB) IACUC where the study was performed.
# purified ovine COX-2 = biological target: T2, purified ovine COX-2 (Ovis aries, UniProt P79208); assay: COX-2 colorimetric activity assay (Cayman kit); type: biochemical; details: purified enzyme
# T2 construct: purchased Cayman Chemical Company
# T2 sequence (P79208 17-603): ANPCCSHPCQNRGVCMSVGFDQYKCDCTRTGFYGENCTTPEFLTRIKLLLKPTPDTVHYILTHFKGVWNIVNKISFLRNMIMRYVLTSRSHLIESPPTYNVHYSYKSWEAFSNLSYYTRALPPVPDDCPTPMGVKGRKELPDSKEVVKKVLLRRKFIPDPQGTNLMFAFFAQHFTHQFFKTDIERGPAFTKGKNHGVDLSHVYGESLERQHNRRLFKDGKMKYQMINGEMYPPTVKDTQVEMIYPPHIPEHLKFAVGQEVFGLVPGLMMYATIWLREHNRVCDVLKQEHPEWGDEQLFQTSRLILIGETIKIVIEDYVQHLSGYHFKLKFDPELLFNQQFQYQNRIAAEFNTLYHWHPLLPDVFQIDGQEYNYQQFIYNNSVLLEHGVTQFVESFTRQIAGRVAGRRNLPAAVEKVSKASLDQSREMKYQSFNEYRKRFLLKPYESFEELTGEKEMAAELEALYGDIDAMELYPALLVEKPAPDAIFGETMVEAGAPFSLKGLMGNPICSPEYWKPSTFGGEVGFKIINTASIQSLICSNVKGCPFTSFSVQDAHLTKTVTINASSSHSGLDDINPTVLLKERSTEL
# Description: as §1
# recombinant PDE5 = biological target: T3, recombinant PDE5 (Homo sapiens, UniProt O76074); assay: PDE activity, IMAP fluorescence polarization assay; type: biochemical
# T3 construct: purchased BPS Biosciences
# Description: as §4
# [9] = tested on: human breast cancer cell lines; assay: Growth inhibition, Cell Titer Glo, panel of human breast cancer cell lines; type: cell-based
# Description: as §2, §3
compound,measurement,setting,value
"CSc1ccc(/C=C2/C(C)=C(CC(=O)O)c3cc(F)ccc32)cc1 [SS, sulindac sulfide]",IC50,[1],58.8 to 83.7 µM
"CSc1ccc(/C=C2/C(C)=C(CC(=O)NCCN(C)C)c3cc(F)ccc32)cc1 [SSA, sulindac sulfide amide]",IC50,purified ovine COX-1; purified enzyme,81.6 µM
same,fold less potent than sulindac sulfide (SS) in inhibiting COX-1,purified ovine COX-1; vs SS,68 fold
same,plasma levels,[2],exceed the concentrations necessary for SSA to activate cGMP signaling and inhibit growth in breast cancer cells in vitro
same,intracellular cGMP levels,MDA-MB-231 cells,increased intracellular cGMP levels
same,IC50,SKBr3,3.9 µM
same,IC50,MCF7,7 µM
same,IC50,MDA-MB-231,6.5 µM
same,IC50,ZR75-1,7.1 µM
same,IC50,Hs578t,7 µM
same,reduction of Tcf transcriptional activity,Hs578t cells; 5 µM,14%
same,reduction of Tcf transcriptional activity,Hs578t cells; 20 µM,60%
same,cell growth in 3D HuBiogel,[3],markedly reduced
same,inhibition of cGMP hydrolysis,[4],65%
same,inhibition of cGMP hydrolysis,[5],38%
same,VASP phosphorylation at serine 239 (PKG activity marker),[6]; MDA-MB-231,significantly increased
same,time of peak VASP phosphorylation,[6]; MDA-MB-231,1 h
same,cyclin D1 protein levels,[6]; after 1 h,decreased appreciably
same,survivin protein levels,[6]; after 7 h,decreased appreciably
same,TUNEL Positive,SKBr3 cells; 10 μM,2%
same,TUNEL Positive,SKBr3 cells; 25 μM,59%
same,TUNEL Positive,SKBr3 cells; 50 μM,86%
same,caspase activation,MCF7 cells,no increase
same,increase in activity of caspases 3 and 7,[7],2 to 6 fold
same,change in body weight,"[8]; 800 and 1200 ppm in diet, 126-day study",Neither dose of SSA resulted in a significant change
same,reduction in tumor incidence compared to vehicle control,[8]; 800 ppm in diet,22%
same,reduction in tumor multiplicity compared to vehicle control,[8]; 800 ppm in diet,31%
same,reduction in tumor incidence compared to vehicle control,[8]; 1200 ppm in diet,43%
same,reduction in tumor multiplicity compared to vehicle control,[8]; 1200 ppm in diet,62%
same,reduction in the incidence of tumors,"[8]; abstract, dose not stated",57%
same,reduction in the multiplicity of tumors,"[8]; abstract, dose not stated",62%
same,toxicity observed in rats,[8]; long-term dietary treatment,no discernable toxicity
same,IC50,purified ovine COX-2,> 200 µM
same,inhibition at 25 µM,recombinant PDE5,55%
same,IC50,"[9]; Homo sapiens, 72 h treatment, 2D growth, read-out: IC50 for human breast cancer cell growth (range over cell lines)",3.9 to 7.1 µM
same,fold more potent than SS in inhibiting growth and inducing apoptosis in breast cancer cells,[9]; vs SS,10 fold
